Data taken from patent US20150080380A1, “Therapeutic Uses” (GLAXOSMITHKLINE INTELLECTUAL PROPERTY DEVELOPMENT LIMITED, priority 2012, published 2015).
Where two headings read alike, the source gives them in different places.

Tests used:
OPC differentiation = test: Oligodendrocyte precursor cell (OPC) differentiation assay (MBP immunocytochemistry); format: cell-based, rat; conditions: for EC50: Rattus norvegicus, Oligodendrocyte precursor cell
Experimental: The effects of small-molecule inverse agonists and neutral antagonists of histamine receptor 3 (H3R) on OPC differentiation were determined using the following assay.
The enriched OPC were obtained from dissecting 2-d-old rat pups forebrain. The pups were anesthetized and decapitated. Then the skull was cut with microdissecting scissors and the cortex was taken out with Dumont forceps. The meninges were removed with fine tips. After repeated trituration of the cortex through cell strainer, cells were re-suspended with the culture media consisted of DMEM supplemented with 20% Fetal bovine serum (Invitrogen, Carlsbad, Calif.), glutamine (4 mM, (Invitrogen), and plated onto poly-D-lysine (PDL, […] for 1 h, Sigma, St. Louis, Mo.)-coated T75 flasks. The resulting cultures were fed with fresh culture media twice per week and almost all the neurons will die due to the high concentration of serum in one week. Then the mixed glial cells were subjected to a series shake-off procedure to obtain pure OPCs two weeks later. Specifically, the mixed glial cells were shaken initially for 1 hour at 100 rpm to remove microglia and shaken for 20-22 hours at 37° C. at 200 rpm to enrich OPCs. OPCs were collected by centrifugation at 1200 rpm for 5 min, re-suspended in basal chemically defined medium (BDM). BDM consisted of DMEM supplemented with N2 medium (100×, Invitrogen), glutamine (4 mM, Invitrogen), BSA (0.1 mg/ml, Sigma), hydrocortisone (20 nM, Sigma), selenium (30 nM, Sigma) and biotin (10 nM, Sigma). OPCs were plated on poly-ornithine (PO, 50 μg/ml for 1 hr, Sigma)-coated culture dishes and maintained in BDM supplemented with bFGF (10 ng/ml, Invitrogen) and PDGF (10 ng/ml, PeproTech, Rocky Hill, N.J.) before experimental manipulation. OPCs were 95% pure judged by A2B5+ staining.
To initiate OPC differentiation, OPCs were firstly treated with 0.05% Trypsin/EDTA, and seeded into PO-coated 384-mini well plate at a density of 2,000 to 5,000 cells/well. Each test compound was dissolved in DMSO at the concentration of 10 mM for the assay. Compounds at different concentrations (full dose curve, 0.3 nM-10 uM) were added into the OPC culture in duplicates with Echo machine (Thermo, Waltham, Mass.). OPCs were cultured in BDM supplemented with N-acetyl-L-cystenine (30 μM, Sigma) to differentiate into mature oligodendrocytes for 4 days. BDM comprise DMEM (Invitrogen), N2 (100×, Invitrogen), L-Glu (50×, Invitrogen), Sodium Pyruvate (100×, Invitrogen), BSA (0.1%, Sigma), Biotin (10 nM, Sigma), hydrocortisone (10 nM, Sigma). The resulting cultures were fixed with 4% polyformaldehyde (Sigma) and samples were blocked with the blocking buffer (Donkey Serum 3%, Sigma; Triton X-100 0.04%, Sigma). Then fixed cells were incubated in primary antibodies (anti-myelin basic protein, MBP antibody, 600× dilution in blocking buffer) overnight at 4° C., washed thoroughly with PBS and then incubated with Alexa 488-labeled secondary antibody (Molecular Probes, Invitrogen) for 2 h at R.T; then washed thoroughly with PBS and stained with Dapi (1 ug/ml, Sigma),
The full-plate immunocytochemistry staining was read by an automatic image-based analysis system-Cellomics (Thermo) and the raw data for each well was acquired as percentage of MBP+ population as follows: Pictures of eight fields per well were captured and analyzed quantitatively; the well data is the average of 8 fields. The intensity of anti-MBP staining in the cytosol was used as the criteria of positive objects. The threshold of positive objects was set based on the average intensity of the positive control well, for which triiodothyronine (15 nM) was used. Then the data was analyzed and presented as fold change of the number of the vehicle control well. Graphs were generated by softwares: Microsoft Excel and IDBS XL fits. The curve fitting was performed with software XL fits to derive EC50 of the positive compounds.
All data except FIG. 1 are given as mean±standard error of the mean (SEM). […]

[1] = system: MAG and MBP expression in OPCs; test: Western blot of mature oligodendrocyte markers in differentiating OPCs; format: cell-based, rat; conditions: differentiating oligodendrocytes after treatment
Experimental: The antibodies used for immunoblot and immunocytochemistry experiments were rabbit anti-myelin basic protein (MBP, Millipore, Billerica, Mass.), mouse anti-myelin-associated glycoprotein (MAG, abcam, Cambridge, Mass.).
After treatments, OPCs were washed twice with ice-cold PBS and total cell lysates were harvested in RIPA lysis buffer (50 mM Tris-HCl, pH 7.5, 1 mM EDTA, 1 mM EGTA, 1 mM sodium orthovanadate, 50 mM sodium fluoride, 0.1% 2-mercaptoethanol, 1% triton X-100 and proteases inhibitor cocktail). The lysates were briefly sonicated and stored at −80° C. before Western analysis. The BCA Protein Assay Reagent (PIERCE, Thermo) was performed to determine protein concentration. 15 μg of total protein per sample was aliquoted, boiled for 5 min after being mixed with 2×SDS buffer (125 mM Tris-HCl, 4% SDS, 20% glycerol, 100 mM DTT) and separated by SDS-PAGE on Bis-Tris mini-gels (Invitrogen). Separated proteins were then transferred to nitrocellulose membranes and blocked in 5% milk/TBS-0.1% Tween for 1 h at room temperature. Membranes were then incubated in the presence of primary antibodies diluted in 5% milk/TBS-0.1% Tween overnight at 4° C. The following day, membranes were washed 3 times for 5 min with TBS-0.1% Tween and incubated for 1 h at room temperature in 5% milk/TBS-0.1%. […]

EC50 (OPC differentiation; 96 h, 0.3 nM-10 uM, 4 days, FIG. 1, read-out: EC50, promotion of OPC differentiation (MBP+ population)) | EC50 (OPC differentiation; five experiments (n=5), FIG. 3b, read-out: EC50, promotion of OPC differentiation) | EC50 (OPC differentiation; two experiments (n=2), FIG. 3a, read-out: EC50, promotion of OPC differentiation) | SMILES | expression levels of MAG and MBP (western blot) [1] | MBP-positive cells (OPC differentiation; at 3 uM, n=5, FIG. 3b)
25 nM |  |  | c1cc2c(cc1-c1noc(CC3CCN(C4CCC4)CC3)n1)OCO2 [Example compound 2, 3-(benzo[d][1,3]dioxol-5-yl)-5-((1-cyclobutylpiperidin-4-yl)methyl)-1,2,4-oxadiazole] | significant increase | 
 | 159 ± 57 nM | 118 ± 49 nM | O=C1CCCN1c1ccc(Oc2ccc3c(c2)CCN(C2CCC2)CC3)nc1 [Example compound 1, 1-{6-[(3-cyclobutyl-2,3,4,5-tetrahydro-1H-3-benzazepin-7-yl)oxy]-3-pyridinyl}-2-pyrrolidinone] | increased expression levels | up to 1.8±0.1 folds of control
